Patent US8722673B2, “Imine compounds for combating invertebrate pests” (BASF SE, priority 2008, dated 2014)

What was measured:
Type in all cases: in vivo
[1] = tested on: Boll Weevil (Anthonomus grandis); test: Boll weevil microtiter plate diet test; conditions: 120 h, read-out: mortality in comparison with untreated controls
Protocol: For evaluating control of boll weevil (Anthonomus grandis) the test unit consisted of 24-well-microtiter plates containing an insect diet and 20-30 A. grandis eggs. The compounds were formulated using a solution containing 75% v/v water and 25% v/v DMSO. Different concentrations of formulated compounds were sprayed onto the insect diet at 20 μl, using a custom built micro atomizer, at two replications. After application, microtiter plates were incubated at about 23±1° C. and about 50±5% relative humidity for 5 days. Egg and larval mortality was then visually assessed.

[2] = tested on: Tobacco Budworm (Heliothis virescens); test: Tobacco budworm microtiter plate diet test; conditions: 120 h, read-out: mortality in comparison with untreated controls
Protocol: For evaluating control of tobacco budworm (Heliothis virescens) the test unit consisted of 96-well-microtiter plates containing an insect diet and 15-25 H. virescens eggs. The compounds were formulated using a solution containing 75% v/v water and 25% v/v DMSO. Different concentrations of formulated compounds were sprayed onto the insect diet at 10 μl, using a custom built micro atomizer, at two replications. After application, microtiter plates are incubated at about 28±1° C. and about 80±5% relative humidity for 5 days. Egg and larval mortality is then visually assessed.

[3] = tested on: Diamond Back Moth (Plutella xylostella); test: Diamond back moth leaf-dip test on Chinese cabbage; conditions: read-out: mortality in comparison with untreated controls
Protocol: (§1) If not otherwise specified the test solutions were prepared as follow:
(§2) The active compound was dissolved at the desired concentration in a mixture of 1:1 (vol:vol) distilled water:acteon. The test solution was prepared the day it was used and in general at concentrations of […] (wt/vol).
Leaves of Chinese cabbage were dipped in test solution and air-dried. Treated leaves were placed in petri dished lined with moist filter paper. Mortality was recorded 24, 72, and 120 hours after treatment.

[4] = tested on: Southern Armyworm (Spodoptera eridania); test: Southern armyworm spray test on lima bean plants; conditions: 96 h, read-out: mortality in comparison with untreated controls
Protocol: (§3) The active compounds were formulated in cyclohexanone as a 10,000 ppm solution supplied in tubes. The tubes were inserted into an automated electrostatic sprayer equipped with an atomizing nozzle and served as stock solutions for which lower dilutions are made in 50% acetone:50% water (v/v). A nonionic surfactant (Kinetic®) was included in the solution at a volume of 0.01% (v/v).
Lima bean plants (variety Sieva) were grown 2 plants to a pot and selected for treatment at the 1st true leaf stage. Test solutions were sprayed onto the foliage by an automated electrostatic plant sprayer equipped with an atomizing spray nozzle. The plants were dried in the sprayer fume hood and then removed from the sprayer. Each pot was placed into perforated plastic bags with a zip closure. About 10 to 11 armyworm larvae were placed into the bag and the bags zipped closed. Test plants were maintained in a growth room at about 25° C. and about 20-40% relative humidity for 4 days, avoiding direct exposure to fluorescent light (24 hour photoperiod) to prevent trapping of heat inside the bags. Mortality and reduced feeding were assessed 4 days after treatment, compared to untreated control plants.

[5] = tested on: Mediterranean Fruitfly (Ceratitis capitata); test: Mediterranean fruitfly microtiter plate diet test; conditions: 120 h, read-out: mortality in comparison with untreated controls
Protocol: For evaluating control of Mediterranean fruitfly (Ceratitis capitata) the test unit consisted of microtiter plates containing an insect diet and 50-80 C. capitata eggs.
The compounds were formulated using a solution containing 75% v/v water and 25% v/v DMSO. Different concentrations of formulated compounds were sprayed onto the insect diet at 5 μl, using a custom built micro atomizer, at two replications. After application, microtiter plates were incubated at about 28±1° C. and about 80±5% relative humidity for 5 days. Egg and larval mortality was then visually assessed.

[6] = tested on: Vetch Aphid (Megoura viciae); test: Vetch aphid leaf disk microtiter plate test; conditions: foliar, 120 h, read-out: mortality in comparison with untreated controls
Protocol: For evaluating control of vetch aphid (Megoura viciae) through contact or systemic means the test unit consisted of 24-well-microtiter plates containing broad bean leaf disks. The compounds were formulated using a solution containing 75% v/v water and 25% v/v DMSO. Different concentrations of formulated compounds were sprayed onto the leaf disks at 2.5 μl, using a custom built micro atomizer, at two replications. After application, the leaf disks were air-dried and 5-8 adult aphids were placed on the leaf disks inside the microtiter plate wells. The aphids were then allowed to suck on the treated leaf disks and incubated at about 23±1° C. and about 50±5% relative humidity for 5 days. Aphid mortality and fecundity was then visually assessed.

[7] = tested on: Silverleaf Whitefly (Bemisia argentifolii); test: Silverleaf whitefly spray test on cotton plants; conditions: 72 h, read-out: mortality in comparison with untreated controls
Text: as §3, with “were” for “are”
Cotton plants at the cotyledon stage (one plant per pot) were sprayed by an automated electrostatic plant sprayer equipped with an atomizing spray nozzle. The plants were dried in the sprayer fume hood and then removed from the sprayer. Each pot was placed into a plastic cup and about 10 to 12 whitefly adults (approximately 3-5 days old) were introduced. The insects were collected using an aspirator and a nontoxic Tygon® tubing connected to a barrier pipette tip. The tip, containing the collected insects, was then gently inserted into the soil containing the treated plant, allowing insects to crawl out of the tip to reach the foliage for feeding. Cups were covered with a reusable screened lid. Test plants were maintained in a growth room at about 25° C. and about 20-40% relative humidity for 3 days, avoiding direct exposure to fluorescent light (24 hour photoperiod) to prevent trapping of heat inside the cup. Mortality was assessed 3 days after treatment, compared to untreated control plants.

[8] = tested on: Cowpea Aphid (Aphis craccivora); test: Cowpea aphid spray test on potted cowpea plants; conditions: 500 ppm; population reduction assessed after 24, 72 and 120 hours
Protocol: as §1, §2
Potted cowpea plants colonized with approximately 100-150 aphids of various stages were sprayed after the pest population had been recorded. Population reduction was assessed after 24, 72, and 120 hours.

[9] = tested on: Orchid Thrips (Dichromothrips corbetti); test: Orchid thrips floral-immersion test; conditions: 96 h, read-out: mortality in comparison with untreated controls
Protocol: Dichromothrips corbetti adults used for bioassay were obtained from a colony maintained continuously under laboratory conditions. For testing purposes, the test compound was diluted to a concentration of 300 ppm (wt compound: vol diluent) in a 1:1 mixture of acetone:water (vol:vol), plus 0.01% vol/vol Kinetic® surfactant.
Thrips potency of each compound was evaluated by using a floral-immersion technique. Plastic petri dishes were used as test arenas. All petals of individual, intact orchid flowers were dipped into treatment solution and allowed to dry. Treated flowers were placed into individual petri dishes along with 10-15 adult thrips. The petri dishes were then covered with lids. All test arenas were held under continuous light and a temperature of about 28° C. for duration of the assay. After 4 days, the numbers of live thrips was counted on each flower, and along inner walls of each petri dish. The level of thrips mortality was extrapolated from pre-treatment thrips numbers.

Structure (SMILES) | mortality at 2500 ppm [1] | mortality at 2500 ppm [2] | mortality at 300 ppm [3] | mortality at 300 ppm [4] | other results
COC(=NO)c1ccc(C2=NOC(c3cc(Cl)cc(Cl)c3)(C(F)(F)F)C2)cc1C (single isomer, unassigned) [Compound 1-30, 4-[5-(3,5-Dichloro-phenyl)-5-trifluoromethyl-4,5-dihydro-isoxazol-3-yl]-N-hydroxy-2-methyl-benzimidic acid methyl ester] | ≥ 75% | ≥ 75% | ≥ 75% | ≥ 75% | mortality at 2500 ppm [5]: ≥ 75%
Cc1cc(C2=NOC(c3cc(Cl)cc(Cl)c3)(C(F)(F)F)C2)ccc1C(CC(C)C)=NO (centres unmarked) [Compound 1-55, 1-{4-[5-(3,5-Dichloro-phenyl)-5-trifluoromethyl-4,5-dihydro-isoxazol-3-yl]-2-methyl-phenyl}-3-methyl-butan-1-one oxime] | ≥ 75% | ≥ 75% | ≥ 75% | – | –
Cc1cc(C2=NOC(c3cc(Cl)cc(Cl)c3)(C(F)(F)F)C2)ccc1/C=N/OCC(=O)OC(C)(C)C (centres unmarked) [Compound 1-13, [1-{4-[5-(3,5-Dichloro-phenyl)-5-trifluoromethyl-4,5-dihydro-isoxazol-3-yl]-2-methyl-phenyl}-meth-(E)-ylideneaminooxy]-acetic acid tert-butyl ester] | – | ≥ 75% | ≥ 75% | ≥ 75% | –
Cc1cc(C2=NOC(c3cc(Cl)cc(Cl)c3)(C(F)(F)F)C2)ccc1/C=N/OCC(=O)O (centres unmarked) [Compound 1-12, [1-{4-[5-(3,5-Dichloro-phenyl)-5-trifluoromethyl-4,5-dihydro-isoxazol-3-yl]-2-methyl-phenyl}-meth-(E)-ylideneaminooxy]-acetic acid] | – | ≥ 75% | – | – | mortality at 2500 ppm [6]: ≥ 75%; mortality at 300 ppm [7]: ≥ 75%
Cc1cc(C2=NOC(c3cc(Cl)cc(Cl)c3)(C(F)(F)F)C2)ccc1/C=N/OCC(=O)N1CCOCC1 (centres unmarked) [Compound 1-16] | – | – | – | – | mortality in comparison with untreated controls [8]: at least 75%
Cc1cc(C2=NOC(c3cc(Cl)cc(Cl)c3)(C(F)(F)F)C2)ccc1/C=N/NC(=O)c1ccccn1 (centres unmarked) [Compound 1-45, Pyridine-2-carboxylic acid [1-{4-[5-(3,5-dichloro-phenyl)-5-trifluoromethyl-4,5-dihydro-isoxazol-3-yl]-2-methyl-phenyl}-meth-(E)-ylidene]-hydrazide] | ≥ 75% | ≥ 75% | – | – | –
Cc1cc(C2=NOC(c3cc(Cl)cc(Cl)c3)(C(F)(F)F)C2)ccc1/C=N/OCC(=O)NCC(F)(F)F (centres unmarked) [Compound 1-9, 2-[1-{4-[5-(3,5-Dichloro-phenyl)-5-trifluoromethyl-4,5-dihydro-isoxazol-3-yl]-2-methyl-phenyl}-meth-(E)-ylideneaminooxy]-N-(2,2,2-trifluoro-ethyl)-acetamide] | ≥ 75% | ≥ 75% | ≥ 75% | ≥ 75% | –
COC(=NO)c1ccc(C2=NOC(c3cc(Cl)cc(Cl)c3)(C(F)(F)F)C2)cc1C (single isomer, unassigned) [Compound 1-31, 4-[5-(3,5-Dichloro-phenyl)-5-trifluoromethyl-4,5-dihydro-isoxazol-3-yl]-N-hydroxy-2-methyl-benzimidic acid methyl ester] | – | – | – | – | mortality at 2500 ppm [6]: ≥ 75%
CC(=NO)c1ccc(C2=NOC(c3cc(Cl)cc(Cl)c3)(C(F)(F)F)C2)cc1C (centres unmarked) [Compound 1-17, 1-{4-[5-(3,5-Dichloro-phenyl)-5-trifluoromethyl-4,5-dihydro-isoxazol-3-yl]-2-methyl-phenyl}-ethanone oxime] | ≥ 75% | ≥ 75% | ≥ 75% | – | mortality at 300 ppm [9]: ≥ 75%
